Activity calls are given as the source filed them. The calls are words filed in the database; no cut-off is given here.
How the values were obtained:
Prolyl endopeptidase FAP = molecular target: T1, Prolyl endopeptidase FAP (Homo sapiens, UniProt Q12884); test: Inhibition of FAP (unknown origin) using AMC substrate by fluorometric assay
T1 sequence (Q12884 whole entry): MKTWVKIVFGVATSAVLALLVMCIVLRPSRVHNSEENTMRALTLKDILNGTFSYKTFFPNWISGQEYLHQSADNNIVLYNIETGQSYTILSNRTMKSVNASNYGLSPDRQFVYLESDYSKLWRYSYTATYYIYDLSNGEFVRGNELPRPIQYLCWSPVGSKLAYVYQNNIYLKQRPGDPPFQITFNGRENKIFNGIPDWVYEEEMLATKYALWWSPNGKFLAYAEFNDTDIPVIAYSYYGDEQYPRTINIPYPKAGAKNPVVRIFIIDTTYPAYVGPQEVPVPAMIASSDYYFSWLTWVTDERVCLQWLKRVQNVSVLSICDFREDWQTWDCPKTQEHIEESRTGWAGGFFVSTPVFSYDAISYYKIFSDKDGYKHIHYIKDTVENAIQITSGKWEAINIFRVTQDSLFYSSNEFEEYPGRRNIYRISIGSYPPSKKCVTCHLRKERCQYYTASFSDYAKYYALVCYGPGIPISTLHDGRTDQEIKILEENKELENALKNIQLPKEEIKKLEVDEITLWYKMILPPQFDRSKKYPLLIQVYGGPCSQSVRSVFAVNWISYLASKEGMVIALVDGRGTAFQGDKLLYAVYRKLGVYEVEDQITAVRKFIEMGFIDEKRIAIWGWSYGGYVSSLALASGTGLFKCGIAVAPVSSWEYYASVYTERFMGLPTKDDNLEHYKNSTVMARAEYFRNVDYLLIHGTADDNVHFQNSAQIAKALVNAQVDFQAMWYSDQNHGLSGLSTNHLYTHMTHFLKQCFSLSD

Dipeptidyl peptidase 4 = Dipeptidyl peptidase 4 (Homo sapiens, UniProt P27487); test: Inhibition of DPP4 (unknown origin) using AMC substrate by fluorometric assay
Sequence of Dipeptidyl peptidase 4 (P27487 whole entry): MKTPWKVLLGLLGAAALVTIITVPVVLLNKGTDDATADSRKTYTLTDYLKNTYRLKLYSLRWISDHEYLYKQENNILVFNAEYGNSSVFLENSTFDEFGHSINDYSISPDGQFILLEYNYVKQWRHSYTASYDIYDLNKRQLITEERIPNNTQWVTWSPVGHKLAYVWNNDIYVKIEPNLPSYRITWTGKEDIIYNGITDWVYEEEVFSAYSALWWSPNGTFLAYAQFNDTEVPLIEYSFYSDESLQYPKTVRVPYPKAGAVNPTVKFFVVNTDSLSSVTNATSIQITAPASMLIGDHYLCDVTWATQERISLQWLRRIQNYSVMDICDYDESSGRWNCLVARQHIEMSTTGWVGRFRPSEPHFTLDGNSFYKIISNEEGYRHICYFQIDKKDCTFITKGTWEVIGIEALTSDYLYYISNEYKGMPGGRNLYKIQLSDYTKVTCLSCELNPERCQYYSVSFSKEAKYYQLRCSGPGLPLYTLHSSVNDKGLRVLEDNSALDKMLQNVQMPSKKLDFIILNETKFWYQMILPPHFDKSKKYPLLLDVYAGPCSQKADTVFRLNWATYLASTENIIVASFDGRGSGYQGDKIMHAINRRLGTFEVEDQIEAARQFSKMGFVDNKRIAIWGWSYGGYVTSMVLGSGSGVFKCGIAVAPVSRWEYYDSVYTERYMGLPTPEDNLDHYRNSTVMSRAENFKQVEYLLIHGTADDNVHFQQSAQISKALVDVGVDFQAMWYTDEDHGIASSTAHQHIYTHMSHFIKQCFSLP

[1] = molecular target: Prolyl endopeptidase FAP (Homo sapiens) (UniProt Q12884); test: Inhibition of FAP (unknown origin) at 1 uM TR-FRET assay relative to control
Prolyl endopeptidase = molecular target: T2, Prolyl endopeptidase (Homo sapiens, UniProt P48147)
T2 sequence (P48147 whole entry): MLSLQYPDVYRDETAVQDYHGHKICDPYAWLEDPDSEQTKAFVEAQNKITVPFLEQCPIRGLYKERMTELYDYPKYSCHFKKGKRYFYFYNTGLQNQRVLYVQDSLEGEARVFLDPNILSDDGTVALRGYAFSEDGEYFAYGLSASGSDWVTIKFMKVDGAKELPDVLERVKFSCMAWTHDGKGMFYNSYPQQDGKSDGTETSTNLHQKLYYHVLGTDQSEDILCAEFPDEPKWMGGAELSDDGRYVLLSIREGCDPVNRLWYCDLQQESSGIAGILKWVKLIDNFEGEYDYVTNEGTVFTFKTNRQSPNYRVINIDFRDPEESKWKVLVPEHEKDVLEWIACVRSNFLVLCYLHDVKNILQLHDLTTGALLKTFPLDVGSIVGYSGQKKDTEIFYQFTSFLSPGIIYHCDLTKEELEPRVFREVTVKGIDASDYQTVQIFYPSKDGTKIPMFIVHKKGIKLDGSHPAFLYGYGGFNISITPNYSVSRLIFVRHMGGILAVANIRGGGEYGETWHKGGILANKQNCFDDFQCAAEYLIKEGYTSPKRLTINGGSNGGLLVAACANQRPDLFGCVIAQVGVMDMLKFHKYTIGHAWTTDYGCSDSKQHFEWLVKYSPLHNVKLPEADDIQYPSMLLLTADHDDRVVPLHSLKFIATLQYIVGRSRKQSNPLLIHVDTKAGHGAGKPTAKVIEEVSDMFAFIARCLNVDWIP
Description: Inhibition of PREP (unknown origin) using AMC substrate by fluorometric assay

Dipeptidyl peptidase 2 = Dipeptidyl peptidase 2 (Homo sapiens, UniProt Q9UHL4); test: Inhibition of DPP2 (unknown origin) using AMC substrate by fluorometric assay
Mus musculus [2] = species on record: Mus musculus; details: C57BL/6J, dose 10-30 mg/kg, time hrs <=6
Mus musculus [3] = species on record: Mus musculus; details: dose 20-50 mg/kg, time hrs <=9
Mus musculus [4] = test: Antidiabetic activity in ob/ob mouse assessed as reduction in plasma glucose level treated single oral dose of compound and recombinant human FGF21 intraperitoneally 60 mins prior to glucose challenge by OGTT; assay type: functional, organism-based; details: dose 20-50 mg/kg

Row | Structure (SMILES) | IC50 (Prolyl endopeptidase FAP) | IC50 (Dipeptidyl peptidase 4) | inhibition [1] | IC50 (Prolyl endopeptidase) | IC50 (Dipeptidyl peptidase 2) | inhibition (Mus musculus [2]) | inhibition (Mus musculus [3]) | Activity (Mus musculus [4])
1 | N#C[C@@H]1CC(F)(F)CN1C(=O)CNC(=O)c1csc(Cc2ccc(-c3ccc(Cl)cc3)cc2)n1 | 145 nM | > 100000 nM | 93.8% | – | – | – | – | –
2 | N#C[C@@H]1CC(F)(F)CN1C(=O)CNC(=O)c1c[nH]c(-c2ccc(Cl)cc2)c1 | 550 nM | – | 57.8% | 3620 nM | – | – | – | –
3 | COc1ccc(-c2nc(C(=O)NCC(=O)N3CC(F)(F)C[C@H]3C#N)cs2)cc1 | 214 nM | – | 76.5% | 1180 nM | – | – | – | –
4 | N#C[C@@H]1CC(F)(F)CN1C(=O)CNC(=O)c1csc(Cc2ccccc2I)n1 | 78 nM | > 100000 nM | 90.6% | – | – | – | – | –
5 | N#Cc1ccc(OCc2nc(C(=O)NCC(=O)N3CC(F)(F)C[C@H]3C#N)cs2)cc1 | 7 nM | > 100000 nM | – | – | – | – | – | –
6 | C[C@@H](NC(=O)c1ccncc1)C(=O)N1CCC[C@H]1B(O)O | – | > 100000 nM | – | – | > 100000 nM | – | – | –
7 | N#C[C@@H]1CC(F)(F)CN1C(=O)CNC(=O)c1csc(Cc2ccc(-n3cccn3)cc2)n1 | 23 nM | > 100000 nM | 98.8% | – | – | – | – | –
8 | N#Cc1ccc(S(=O)(=O)Cc2nc(C(=O)NCC(=O)N3CC(F)(F)C[C@H]3C#N)cs2)cc1 | 9 nM | 76800 nM | – | – | – | – | – | –
9 | N#C[C@@H]1CC(F)(F)CN1C(=O)CNC(=O)c1cccc(-c2ccc(Cl)cc2)n1 | 100 nM | – | 80.6% | – | – | – | – | –
10 | N#C[C@@H]1CC(F)(F)CN1C(=O)CNC(=O)c1csc(Cc2ccccc2Br)n1 | 50 nM | 200 nM | 93.7% | – | – | – | – | –
11 | N#C[C@@H]1CC(F)(F)CN1C(=O)CNC(=O)c1csc(Cc2ccc(OC(F)(F)F)cc2)n1 | 22 nM | > 100000 nM | 86.3% | – | – | – | – | –
12 | N#C[C@@H]1CC(F)(F)CN1C(=O)CNC(=O)c1csc(CSc2ccc(C(F)(F)F)cc2)n1 | 11 nM | > 100000 nM | – | – | – | – | – | –
13 | CS(=O)(=O)c1ccc(Cc2nc(C(=O)NCC(=O)N3CC(F)(F)C[C@H]3C#N)cs2)cc1 | 20 nM | 10100 nM | 98% | – | – | – | – | –
14 | N#C[C@@H]1CC(F)(F)CN1C(=O)CNC(=O)c1csc(Cc2ccc(Cl)cc2)n1 | 21 nM | > 100000 nM | 98.6% | – | – | – | – | –
15 | Cc1ccc(S(=O)(=O)Cc2nc(C(=O)NCC(=O)N3CC(F)(F)C[C@H]3C#N)cs2)cc1 | 20 nM | > 100000 nM | – | – | – | – | – | –
16 | CSc1ccc(Cc2nc(C(=O)NCC(=O)N3CC(F)(F)C[C@H]3C#N)cs2)cc1 | 25 nM | > 100000 nM | 99% | – | – | – | – | –
17 | N#C[C@@H]1CC(F)(F)CN1C(=O)CNC(=O)c1csc(CS(=O)(=O)c2ccc(C(F)(F)F)cc2)n1 | 5 nM | > 100000 nM | – | – | – | – | – | –
18 | N#C[C@@H]1CC(F)(F)CN1C(=O)CNC(=O)c1csc(-c2ccc(Cl)cc2C(F)(F)F)n1 | 60 nM | > 100000 nM | 94.6% | – | – | – | – | –
19 | Cc1ccc(SCc2nc(C(=O)NCC(=O)N3CC(F)(F)C[C@H]3C#N)cs2)cc1 | 5 nM | > 100000 nM | – | – | – | – | – | –
20 | N#C[C@@H]1CC(F)(F)CN1C(=O)CNC(=O)c1coc(-c2ccc(Cl)cc2)n1 | 93 nM | – | 88.7% | 4000 nM | – | – | – | –
21 | N#C[C@@H]1CC(F)(F)CN1C(=O)CNC(=O)c1csc(Cc2cccc(Br)c2)n1 | 35 nM | 52000 nM | 97.5% | – | – | – | – | –
22 | N#C[C@@H]1CC(F)(F)CN1C(=O)CNC(=O)c1cnc(-c2ccc(Cl)cc2)cn1 | 795 nM | – | 64% | – | – | – | – | –
23 | N#C[C@@H]1CC(F)(F)CN1C(=O)CNC(=O)c1csc(-c2ccc(C(F)(F)F)cc2)n1 | 77 nM | > 100000 nM | 99% | 1380 nM | – | – | – | –

Row | Structure (SMILES) | IC50 (Prolyl endopeptidase FAP) | IC50 (Dipeptidyl peptidase 4) | inhibition [1] | IC50 (Prolyl endopeptidase) | IC50 (Dipeptidyl peptidase 2) | inhibition (Mus musculus [2]) | inhibition (Mus musculus [3]) | Activity (Mus musculus [4])
24 | N#C[C@@H]1CC(F)(F)CN1C(=O)CNC(=O)c1csc(Cc2ccc(-n3cncn3)cc2)n1 | 28 nM | 18700 nM | 98.3% | – | – | – | – | –
25 | N#C[C@@H]1CC(F)(F)CN1C(=O)CNC(=O)c1csc(CSc2ccc(Cl)c(Cl)c2)n1 | 119 nM | > 100000 nM | – | – | – | – | – | –
26 | N#C[C@@H]1CC(F)(F)CN1C(=O)CNC(=O)c1csc(-c2ccc(-c3ccccc3)cc2)n1 | 414 nM | – | 84.8% | 10000 nM | – | – | – | –
27 | N#C[C@@H]1CC(F)(F)CN1C(=O)CNC(=O)c1csc(Cc2ccccc2-c2ccc3ccccc3c2)n1 | 4 nM | > 100000 nM | 99.3% | – | – | – | – | –
28 | Cc1ccc(Cc2nc(C(=O)NCC(=O)N3CC(F)(F)C[C@H]3C#N)cs2)cc1 | 37 nM | 68800 nM | 97.8% | – | – | – | – | –
29 | N#C[C@@H]1CC(F)(F)CN1C(=O)CNC(=O)c1csc(-c2ccc(Cl)cc2)n1 | 148 nM | – | 86.7% | – | – | – | – | –
30 | N#Cc1ccc(Cc2nc(C(=O)NCC(=O)N3CC(F)(F)C[C@H]3C#N)cs2)cc1 | – | > 100000 nM | 99.3% | 3200 nM | – | – | – | –
31 | N#C[C@@H]1CC(F)(F)CN1C(=O)CNC(=O)c1csc(Cc2ccc(Cl)cc2Cl)n1 | 1 nM | > 100000 nM | 97.2% | – | – | – | – | –
32 | N#C[C@@H]1CC(F)(F)CN1C(=O)CNC(=O)c1csc(Cc2ccc(Cl)c(Cl)c2)n1 | 2 nM | > 100000 nM | 99% | – | – | Dose-dependent effect | Active | Dose-dependent effect
33 | C[S+]([O-])c1ccc(Cc2nc(C(=O)NCC(=O)N3CC(F)(F)C[C@H]3C#N)cs2)cc1 (stereo partly specified) | 390 nM | 4120 nM | 95% | 1200 nM | – | – | – | –
34 | N#C[C@@H]1CC(F)(F)CN1C(=O)CNC(=O)c1csc(Cc2ccc(Br)cc2)n1 | 16 nM | > 100000 nM | 100% | – | – | – | – | –
35 | N#C[C@@H]1CC(F)(F)CN1C(=O)CNC(=O)c1csc(Cc2ccc(F)c(F)c2)n1 | 47 nM | > 100000 nM | 95.4% | – | – | – | – | –
36 | N#C[C@@H]1CC(F)(F)CN1C(=O)CNC(=O)c1csc(-c2ccc3occc3c2)n1 | 446 nM | – | 83.4% | 10000 nM | – | – | – | –
37 | N#C[C@@H]1CC(F)(F)CN1C(=O)CNC(=O)c1csc(COc2ccc(Cl)c(Cl)c2)n1 | 35 nM | > 100000 nM | – | – | – | – | – | –
38 | COc1ccc(Cc2nc(C(=O)NCC(=O)N3CC(F)(F)C[C@H]3C#N)cs2)cc1 | 26 nM | > 100000 nM | 98% | – | – | – | – | –
39 | N#C[C@@H]1CC(F)(F)CN1C(=O)CNC(=O)c1csc(-c2ccc(F)cc2)n1 | 87 nM | – | 90.5% | 1600 nM | – | – | – | –
40 | N#C[C@@H]1CC(F)(F)CN1C(=O)CNC(=O)c1csc(Cc2ccc(F)cc2Cl)n1 | 60 nM | > 100000 nM | 95.9% | – | – | – | – | –
41 | N#C[C@@H]1CC(F)(F)CN1C(=O)CNC(=O)c1csc(CS(=O)(=O)c2ccc(Cl)c(Cl)c2)n1 | 19 nM | > 100000 nM | – | – | – | – | – | –
42 | N#Cc1ccc(-c2ccc(Cc3nc(C(=O)NCC(=O)N4CC(F)(F)C[C@H]4C#N)cs3)cc2)cc1 | 12 nM | > 100000 nM | 98.7% | – | – | – | – | –
43 | N#C[C@@H]1CC(F)(F)CN1C(=O)CNC(=O)c1csc(Cc2cc(Cl)ccc2Cl)n1 | 55 nM | > 100000 nM | 94.5% | – | – | – | – | –
44 | N#Cc1ccc(SCc2nc(C(=O)NCC(=O)N3CC(F)(F)C[C@H]3C#N)cs2)cc1 | 24 nM | 44600 nM | – | 138 nM | – | – | – | –
45 | Cn1cc(C(=O)NCC(=O)N2CC(F)(F)C[C@H]2C#N)cc1-c1ccc(Cl)cc1 | 104 nM | – | 85.3% | – | – | – | – | –

Reference: ChEMBL document CHEMBL4706690, “Identification of BR102910 as a selective fibroblast activation protein (FAP) inhibitor” (Bioorg Med Chem Lett, 2021)
